Source: patent publication US11628179B2, “Compounds for treating and preventing extracellular histone mediated pathologies” (priority 2017, dated 2023)
“And” between values parts separate entries of the source, which are not always exact repeats. Equal entries are not always repeated. Structures can show the parent of a compound that is named as a salt. Where two headings read alike, the source gives them in different places.

Key:
Sprague Dawley rats = tested on: Sprague Dawley rats
Procedure: This study examined acute toxicity from single IV administration of mCBS in rats with doses up to 1000 mg/kg.
The acute toxicity of β-O-methyl cellobioside sulfate (mCBS) was assessed in Sprague Dawley rats following intravenous administration of a single bolus dose. A total of five groups of n=3 adult female rats were treated with 10, 30, 100, 300 and 1000 mg/kg doses of mCBS test item in the form of the sodium salt (mCBS.Na) in this dose range finding study. […] The rats were then observed for 7 days prior to termination without necropsy.

[1] = Non-specific binding to ultrafiltration device (phosphate buffer); assay type: in vitro ADME; details: for Concentration of mCBS, 200 ng/mL Post-filter / Concentration of mCBS, 200 ng/mL Pre-filter / Concentration of mCBS, 2000 ng/mL Post-filter / Concentration of mCBS, 2000 ng/mL Pre-filter: Phosphate Buffer pH 7.4, replicates and Mean
Procedure: (§1) Protein binding was assessed by an ultrafiltration method using Centrifree® Ultrafiltration Devices with a 30000 dalton molecular weight cut-off point. Briefly, known concentrations of mCBS (as free base) were added to human, rat and dog plasma samples and incubated for 20 min at 37° C. The samples were then subject to ultrafiltration to separate protein bound and unbound drug.
(§2) mCBS stock solutions (10 μL) were spiked into solutions of each test matrix (490 μL) as listed below in Table 9 to have a final concentration of 200 ng/mL & 2000 ng/m L.
(§3) Spiked samples were then incubated at 37° C. for 20 minutes in a water bath. Aliquots of the samples from each test group (500 μL) were transferred to the ultrafiltration devices (n=3) and centrifuged for 20 minutes at 1000 g. After centrifugation, aliquots of the ultrafiltrates (50 μL) were transferred to separate test tubes for extraction, alongside duplicate aliquots of the samples prior to ultrafiltration from each test group.
(§4) For quantification of samples before ultrafiltration, samples were analysed against a freshly prepared standard curve in plasma.

human plasma proteins = assay: Plasma protein binding by ultrafiltration, human plasma; assay type: in vitro ADME; details: for Concentration of mCBS, 200 ng/mL Post-filter / Concentration of mCBS, 200 ng/mL Pre-filter / Concentration of mCBS, 2000 ng/mL Post-filter / Concentration of mCBS, 2000 ng/mL Pre-filter: replicates and Mean
Procedure: as §1, §2, §3, §4

rat plasma proteins = assay: Plasma protein binding by ultrafiltration, rat plasma; assay type: in vitro ADME; details: for Concentration of mCBS, 200 ng/mL Post-filter / Concentration of mCBS, 200 ng/mL Pre-filter / Concentration of mCBS, 2000 ng/mL Post-filter / Concentration of mCBS, 2000 ng/mL Pre-filter: replicates and Mean
Procedure: as §1, §2, §3, §4

dog plasma proteins = assay: Plasma protein binding by ultrafiltration, dog plasma; assay type: in vitro ADME; details: for Concentration of mCBS, 200 ng/mL Post-filter / Concentration of mCBS, 200 ng/mL Pre-filter / Concentration of mCBS, 2000 ng/mL Post-filter / Concentration of mCBS, 2000 ng/mL Pre-filter: replicates and Mean
Procedure: as §1, §2, §3, §4

Sprague-Dawley rats = tested on: Sprague-Dawley rats
Procedure: The objective of these studies was to determine the toxicity of the test item, mCBS, when administered by continuous (24 hours/day) intravenous infusion through a surgically implanted catheter for 7 consecutive days to Sprague-Dawley rats.
The test and control item dose formulations of mCBS (in the form of the heptasodium salt mCBS.Na) were administered to groups of rats by continuous (24 hours/day) intravenous infusion for 7 consecutive days as described in the Table 14 below.
Parameters monitored during this study included mortality, clinical observations, body weights and food consumption. In addition, hematology, coagulation and clinical chemistry parameters were evaluated on Day 9. Blood samples were collected from the animals at timepoints relative to the start of the infusion for analysis of test item concentration in plasma. At termination (Day 9), all animals were euthanized and subjected to a gross necropsy examination. Organ weights were measured on selected organs and a selected list of tissues, including gross lesions, were retained and prepared for microscopic evaluation.

Beagle dogs = tested on: Beagle dogs
Procedure: This study was also conducted inter alia to determine the maximum tolerated dose (MTD) of the test item, mCBS, when administered by continuous (24 hours/day) intravenous infusion through a surgically-implanted catheter for 48 hours per dose level for up to 4 dose levels to Beagle dogs.
mCBS dose formulations were administered to Beagle dogs by continuous (24 hours/day) intravenous infusion for 48 hours per dose level for up to 4 dose levels, as described in the Table 15 below.
Parameters monitored during this phase of the study included mortality, clinical observations, body weights, and food consumption. Serial blood samples were collected from each animal to confirm mCBS plasma levels at the following time points: 24 and 48 hours post start of infusion of each dose level. Blood samples were also collected from each animal for clinical pathology evaluations (hematology, coagulation, and clinical chemistry) on Day 1, prior to administration of the new dose level on Days 3, 5, and 7, and on Day 9.

human platelets = assay: Histone-induced platelet aggregation; assay type: cell-based; details: compounds added prior to histones 150 μg/mL
whole blood coagulation = assay: Inhibition of histone-induced perturbation of whole blood coagulation (ROTEM); assay type: biochemical, human; details: mCBS 200 μg/mL
Text: In comparison, the same volume of water had no effect (FIG. 19).

mice = assay: In-vivo histone toxicity assay, organ damage markers at 4 hr; parameters: species or system mouse; details: 6.25, 25 and 100 mg/kg i.p. 10 min prior to histones 50 mg/kg i.v.; blood at 4 hr
[2] = animals treated with 1394 mg/kg/day (free base)

## CO[C@@H]1O[C@H](COS(=O)(=O)O)[C@@H](O[C@@H]2O[C@H](COS(=O)(=O)O)[C@@H](OS(=O)(=O)O)[C@H](OS(=O)(=O)O)[C@H]2OS(=O)(=O)O)[C@H](OS(=O)(=O)O)[C@H]1OS(=O)(=O)O [mCBS, β-O-methyl cellobioside sulfate]
Sprague Dawley rats; IV bolus single and 7-day studies, corrected for potency
  MTD estimate from potency assessment, free base: ~600 mg/kg
Sprague Dawley rats; single IV bolus, corrected for purity and sodium content
  Maximum Tolerated Dose (MTD), as free base: 815 mg/kg
[1]; 200 ng/mL
  Non-specific binding (NSB %): 0.50%
[1]; 2000 ng/mL
  Non-specific binding (NSB %): −1.97%
[1]
  Concentration of mCBS, 200 ng/mL Post-filter: 194 ng/mL and 202 ng/mL
  Concentration of mCBS, 200 ng/mL Pre-filter: 209 ng/mL and 195 ng/mL
  Concentration of mCBS, 2000 ng/mL Post-filter: 2190 ng/mL and 2160 ng/mL
  Concentration of mCBS, 2000 ng/mL Pre-filter: 1970 ng/mL
[1]; mean
  Concentration of mCBS, 200 ng/mL Post-filter: 201 ng/mL
  Concentration of mCBS, 200 ng/mL Pre-filter: 202 ng/mL
  Concentration of mCBS, 2000 ng/mL Post-filter: 2070 ng/mL
  Concentration of mCBS, 2000 ng/mL Pre-filter: 2030 ng/mL
Human plasma proteins; 200 ng/mL
  Plasma protein binding (%): 22.3%
Human plasma proteins; 2000 ng/mL
  Plasma protein binding (%): 15.8%
Human plasma proteins
  Concentration of mCBS, 200 ng/mL Post-filter: 181 ng/mL and 150 ng/mL and 169 ng/mL
  Concentration of mCBS, 200 ng/mL Pre-filter: 217 ng/mL and 213 ng/mL
  Concentration of mCBS, 2000 ng/mL Post-filter: 1860 ng/mL and 1750 ng/mL and 1770 ng/mL
  Concentration of mCBS, 2000 ng/mL Pre-filter: 2190 ng/mL and 2070 ng/mL
Human plasma proteins; mean
  Concentration of mCBS, 200 ng/mL Post-filter: 167 ng/mL
  Concentration of mCBS, 200 ng/mL Pre-filter: 215 ng/mL
  Concentration of mCBS, 2000 ng/mL Post-filter: 1793 ng/mL
  Concentration of mCBS, 2000 ng/mL Pre-filter: 2130 ng/mL
Rat plasma proteins; 200 ng/mL
  Plasma protein binding: 19.4%
Rat plasma proteins; 2000 ng/mL
  Plasma protein binding: 19.8%
Rat plasma proteins
  Concentration of mCBS, 200 ng/mL Post-filter: 164 ng/mL and 177 ng/mL and 167 ng/mL
  Concentration of mCBS, 200 ng/mL Pre-filter: 205 ng/mL and 217 ng/mL
  Concentration of mCBS, 2000 ng/mL Post-filter: 1710 ng/mL and 1740 ng/mL and 1690 ng/mL
  Concentration of mCBS, 2000 ng/mL Pre-filter: 2090 ng/mL and 2180 ng/mL
Rat plasma proteins; mean
  Concentration of mCBS, 200 ng/mL Post-filter: 170 ng/mL
  Concentration of mCBS, 200 ng/mL Pre-filter: 211 ng/mL
  Concentration of mCBS, 2000 ng/mL Post-filter: 1713 ng/mL
  Concentration of mCBS, 2000 ng/mL Pre-filter: 2135 ng/mL
Dog plasma proteins; 200 ng/mL
  Plasma protein binding: 19.6%
Dog plasma proteins; 2000 ng/mL
  Plasma protein binding: 21.0%
Dog plasma proteins
  Concentration of mCBS, 200 ng/mL Post-filter: 194 ng/mL and 169 ng/mL and 186 ng/mL
  Concentration of mCBS, 200 ng/mL Pre-filter: 230 ng/mL and 225 ng/mL
  Concentration of mCBS, 2000 ng/mL Post-filter: 1970 ng/mL and 1840 ng/mL and 1900 ng/mL
  Concentration of mCBS, 2000 ng/mL Pre-filter: 2490 ng/mL and 2330 ng/mL
Dog plasma proteins; mean
  Concentration of mCBS, 200 ng/mL Post-filter: 183 ng/mL
  Concentration of mCBS, 200 ng/mL Pre-filter: 228 ng/mL
  Concentration of mCBS, 2000 ng/mL Post-filter: 1903 ng/mL
  Concentration of mCBS, 2000 ng/mL Pre-filter: 2410 ng/mL
Sprague-Dawley rats; 1394-5575 mg/kg/day
  AUC5-96 h and Css versus dose: increased linearly with dose
Sprague-Dawley rats; 5 h to 96 h (or 168 h) infusion interval
  plasma concentration versus time: steady state concentrations of mCBS were maintained
Sprague-Dawley rats; [2]
  liver microscopic findings: accumulation of foamy Kupffer cells
  lymph node microscopic findings: accumulation of foam macrophages
Sprague-Dawley rats; animals treated with 2178 mg/kg/day (free base)
  liver microscopic findings: single cell necrosis
Sprague-Dawley rats; animals treated with 2178 and 5575 mg/kg/day
  liver microscopic findings: focal or multiple focal necrosis
Sprague-Dawley rats; animals treated with ≤1394 mg/kg/day (so in the source), free base
  spleen microscopic findings: accumulation of foamy macrophages associated with increased apoptotic cells in the red pulp
Sprague-Dawley rats; animals treated with ≤2178 mg/kg/day (so in the source), free base
  kidney microscopic findings: proximal tubular vacuolation/rarefaction
Sprague-Dawley rats; both sexes at 5575 mg/kg/day
  urea, total protein and albumin: increase in urea and decreases in total protein and albumin
Sprague-Dawley rats; both sexes at doses ≤3484 mg/kg/day (so in the source)
  white blood cell lines: Increases in white blood cell lines
Sprague-Dawley rats; both sexes, 5575 mg/kg/day (free base)
  body weight gain and food consumption: Decreases in body weight gain
Sprague-Dawley rats; free base, corrected for potency and salt content, continuous IV infusion 7 days
  No Observable Adverse Effect Level (NOAEL): 1394 mg/kg/day
Sprague-Dawley rats; males at 5575 mg/kg/day
  red blood cell parameters and reticulocytes: decreases in red blood cell counts, hemoglobin, hematocrit, mean corpuscular volume and mean corpuscular hemoglobin concentration as well as increases in the reticulocytes
Sprague-Dawley rats; males at doses 2178 mg/kg/day, females at doses ≤3484 mg/kg/day (so in the source)
  activated partial thromboplastin time: Increases in activated partial thromboplastin time
Sprague-Dawley rats; males dosed at 5575 mg/kg/day
  Liver enzymes (ALT, AST), cholesterol and triglycerides: increased
Beagle dogs; 2788 mg/kg/day
  steady-state plasma concentration (Css) at the highest dose level: higher than 300 μg/mL
Beagle dogs; continuous (24 hours/day) IV infusion for 48 hours, free base corrected dose
  maximum tolerated dose (MTD): 2788 mg/kg/day
Beagle dogs; stepwise administration up to 2788 mg/kg/day
  dose-limiting toxicity (adverse clinical sign): No dose-limiting toxicity
Human platelets
  histone-induced platelet aggregation: significantly reduced
Whole blood coagulation
  inhibition of histone-induced prolongation of clotting time: able to inhibit the anticoagulant effects of both 400 and 800 μg/mL of histones
mice
  protection from histone-induced organ damage (LDH, ALT, creatinine): protects animals from histone-mediated injury
